Data as given in ChEMBL document CHEMBL5126507, “P2Y12 antagonists: Approved drugs, potential naturally isolated and synthesised compounds, and related in-silico studies” (Eur J Med Chem, 2022).

Key:
[1] = Antiplatelet activity in human platelet rich plasma assessed as inhibition of ADP-induced platelet aggregation preincubated for 5 mins followed by ADP addition and measured after 5 mins; type: functional, cell-based
P2Y purinoceptor 12 [2] = biological target: T1, P2Y purinoceptor 12 (Homo sapiens, UniProt Q9H244); experiment: Displacement of [3H]2MeSADP from human P2Y12 expressed in U2OS cell membranes incubated for 60 mins by scintillation counting method; parameters: species or system Membrane
T1 sequence (Q9H244 whole entry): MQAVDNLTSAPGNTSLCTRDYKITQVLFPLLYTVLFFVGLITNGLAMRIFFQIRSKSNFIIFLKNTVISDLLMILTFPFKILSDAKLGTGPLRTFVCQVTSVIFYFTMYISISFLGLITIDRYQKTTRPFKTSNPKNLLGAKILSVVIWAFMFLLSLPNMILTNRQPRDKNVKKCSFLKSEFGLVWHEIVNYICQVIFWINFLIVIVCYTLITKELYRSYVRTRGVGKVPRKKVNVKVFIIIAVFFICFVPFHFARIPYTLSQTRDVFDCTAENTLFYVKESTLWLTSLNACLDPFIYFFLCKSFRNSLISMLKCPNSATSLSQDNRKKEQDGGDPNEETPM

P2Y purinoceptor 12 [3] = biological target: T1, P2Y purinoceptor 12; experiment: Binding affinity to human P2Y12 expressed in astrocytoma cells; type: cell-based, Astrocyte
[4] = Antiplatelet activity in human platelet rich plasma assessed as inhibition of ADP-induced platelet aggregation preincubated for 2 mins followed by ADP addition and measured after 6 mins by Born method; type: functional, cell-based
Blood [5] = experiment: Ex vivo inhibition of platelet aggregation in Sprague-Dawley rat blood at 3 mg/kg, iv measured after 2 hrs; type: functional; parameters: scale not given: the % may be the effect or the level left
Blood [6] = experiment: Ex vivo inhibition of platelet aggregation in Sprague-Dawley rat blood at 10 mg/kg, po measured after 2 hrs; type: functional; parameters: scale not given: the % may be the effect or the level left
Blood [7] = experiment: Ex vivo inhibition of platelet aggregation in Sprague-Dawley rat blood at 1 mg/kg, iv measured after 2 hrs; type: functional
Blood [8] = experiment: Ex vivo inhibition of platelet aggregation in Sprague-Dawley rat blood at 3 mg/kg, po measured after 2 hrs; type: functional
[9] = Antiplatelet activity in rat platelet rich plasma assessed as inhibition of ADP-induced platelet aggregation preincubated for 1 min followed by ADP addition and measured after 6 mins by Born method; type: functional, cell-based
[10] = Antiplatelet activity in human platelet rich plasma assessed as inhibition of ADP-induced platelet aggregation preincubated for 1 min followed by ADP addition and measured after 6 to 8 mins by Born method; type: functional, cell-based
[11] = Antiplatelet activity in human platelet rich plasma assessed as inhibition of ADP-induced platelet aggregation preincubated for 2 mins followed by ADP addition for 5 mins; type: functional, cell-based
Blood [12] = experiment: Ex vivo inhibition of platelet aggregation in Sprague-Dawley rat blood at 3 mg/kg, iv measured after 30 mins; type: functional; details: 0.5 h
Rattus norvegicus = species: Rattus norvegicus; experiment: Anti-platelet aggregation activity in Sprague-Dawley rat assessed as reduction in bleeding time; type: functional
P2Y purinoceptor 12 [13] = biological target: T1, P2Y purinoceptor 12; experiment: Displacement of tritium-labeled 2MeSADP from human P2Y12 expressed in CHO cells measured after 2 hrs by scintillation counting method; type: cell-based
P2Y purinoceptor 12 [14] = biological target: T1, P2Y purinoceptor 12; experiment: Displacement of [3H]2MeSADP from P2Y12 (unknown origin)
[15] = Antiplatelet activity in human platelet rich plasma assessed as inhibition of ADP-induced platelet aggregation preincubated for 5 mins followed by ADP addition and measured after 20 mins by microplate reader analysis; type: functional, cell-based
[16] = Antiplatelet activity in human platelet rich plasma assessed as inhibition of CaCl2/fibrinogen-induced platelet aggregation preincubated for 5 mins followed by CaCl2/fibrinogen addition by microplate reader analysis; type: functional, cell-based
P2Y purinoceptor 12 [17] = biological target: T1, P2Y purinoceptor 12; experiment: Inhibition of 2-MeS-ADP induced P2Y12 (unknown origin) signalling expressed in CHO cells membrane incubated for 45 mins by 35S-GTPgammaS assay; type: functional, cell membranes

COc1cc(/C=C/c2cc(O)cc(O)c2)ccc1O
IC50 [1]: 1850 nM

O=C(/C=C/c1ccc(O)c2c1[C@H](C(=O)O[C@H](Cc1ccc(O)c(O)c1)C(=O)O)[C@@H](c1ccc(O)c(O)c1)O2)O[C@H](Cc1ccc(O)c(O)c1)C(=O)O
Ki (P2Y purinoceptor 12 [2]): 36400 nM

Cc1cc(C)cc(Nc2cc(S(=O)(=O)O)c(N)c3c2C(=O)c2ccccc2C3=O)c1
Ki (P2Y purinoceptor 12 [3]): 63 nM

Cc1c(N)cccc1Nc1cc(S(=O)(=O)O)c(N)c2c1C(=O)c1ccccc1C2=O
Ki (P2Y purinoceptor 12 [3]): 25 nM

O=C(O)CC[C@H](NC(=O)c1cc(OCC(=O)N2CCC[C@H]2C(=O)NC2CCC2)n(-c2ccccc2)n1)C(=O)N1CCN(C(=O)OC2CCC2)CC1
IC50 [4]: ≤ 11 nM

CCOC(=O)N1CCN(C(=O)[C@H](CCC(=O)O)NC(=O)c2cc(OCC(=O)N3CCC[C@H]3C(=O)NC3CC3)n(-c3ccccc3)n2)CC1
IC50 [4]: ≤ 11 nM

CCOC(=O)N1CCN(C(=O)[C@H](CCC(=O)O)NC(=O)c2cc(OCC(=O)N3CCC[C@H]3C(=O)NC3CCCC3)n(-c3ccccc3)n2)CC1
IC50 [4]: ≤ 11 nM

CCCC(=O)c1cnn(-c2ccc(NC(=O)c3cn(CC(=O)N4CCN(C)CC4)c4ccc(Cl)cc34)nn2)c1C
Activity (Blood [5]): 79%
Activity (Blood [6]): 73.5%

CCCC(=O)c1cnn(-c2cnc(NC(=O)c3cn(CC(=O)N4CCN(C)CC4)c4ccc(Cl)cc34)cn2)c1C
inhibition in vivo at 1 mg/kg (Blood [7]): 86.3%
Activity (Blood [6]): 76%

CCCC(=O)c1cnn(C2CCN(NC(=O)c3cn(CC(=O)N4CCN(C)CC4)c4ccc(Cl)cc34)CC2)c1C
inhibition in vivo at 3 mg/kg (Blood [8]): 72%
inhibition in vivo at 1 mg/kg (Blood [7]): 88%
IC50 [9]: 43 nM
IC50 [10]: 25 nM

Cc1cc(Nc2ccc(Nc3ccccc3)c(S(=O)(=O)O)c2)c2c(c1N)C(=O)c1ccccc1C2=O
Ki (P2Y purinoceptor 12 [3]): 51 nM

CCCCOC(=O)N1CCN(C(=O)[C@H](CP(=O)(OCOC(=O)OC(C)C)OCOC(=O)OC(C)C)NC(=O)c2cc(N3CC[C@H](OC)C3)nc(-c3ccccc3)n2)CC1
IC50 [11]: 8 nM

CCCC(=O)c1cnn(C2CCC(NC(=O)c3cn(CC(=O)N4CCN(C)CC4)c4ccc(Cl)cc34)CC2)c1C (stereo not given)
inhibition in vivo at 3 mg/kg (Blood [8]): 42.8%
IC50 [9]: 91 nM
inhibition in vivo at 3 mg/kg (Blood [12]): 79%
IC50 [10]: 270 nM

COC(=O)C(c1ccccc1Cl)N1CCc2sc(OC(=O)C(N)CC(C)C)cc2C1.Cl (stereo not given)
ED50 (Rattus norvegicus): 2.16 mg/kg

CCCCOC(=O)N1CCN(C(=O)[C@H](CCC(=O)O)NC(=O)c2nc(-c3ccccc3)sc2N2CC[C@H](OC)C2)CC1
IC50 (P2Y purinoceptor 12 [13]): 1 nM

C[C@H]([C@@H](O)[C@H](O)[C@@H](C)C(C)(C)C)[C@H]1CC[C@H]2[C@@H]3CC[C@H]4C[C@@H](OS(=O)(=O)O)[C@H](OS(=O)(=O)O)C[C@]4(C)[C@H]3CC[C@]12C
IC50 (P2Y purinoceptor 12 [14]): 2200 nM

CCCCOC(=O)N1CCN(C(=O)[C@H](CP(=O)(O)O)NC(=O)c2csc(-c3ccccc3)n2)CC1
IC50 (P2Y purinoceptor 12 [13]): 1 nM

CCOC(=O)N1CCN(C(=O)[C@H](CCC(=O)O)NC(=O)c2cc(OCC(=O)N[C@@H](C)C(=O)O)n(-c3ccccc3)n2)CC1
IC50 [15]: 1480 nM

CCOC(=O)N1CCN(C(=O)[C@H](CCC(=O)O)NC(=O)c2cc(OCC(=O)N3CCC[C@H]3C(=O)NCC(F)(F)F)n(-c3ccccc3)n2)CC1
IC50 [4]: ≤ 11 nM

C[C@H](CC[C@@H](C)C(C)(C)C)[C@H]1CC[C@H]2[C@@H]3C[C@H](OS(=O)(=O)O)[C@H]4C[C@@H](OS(=O)(=O)O)[C@H](OS(=O)(=O)O)C[C@]4(C)[C@H]3CC[C@]12C
IC50 (P2Y purinoceptor 12 [14]): 480 nM

CCCSc1nc(N[C@@H]2C[C@H]2c2ccccc2)c2nnn([C@@H]3C=C[C@H](OCC(=O)O)[C@@H](O)[C@H]3O)c2n1
IC50 [16]: 2910 nM

CCCC(=O)c1cc(C#N)c(N(C(=O)C2CCNCC2)S(=O)(=O)Cc2cccc(F)c2)nc1C
IC50 (P2Y purinoceptor 12 [17]): 100 nM
